US10844404B2, “Engineered microorgansims and methods for improved crotyl alcohol production” (priority 2015, dated 2020)

What was measured:
[1] = tested on: E. coli ATCC 8739 C strains; assay: Crotyl alcohol tolerance study (Bioscreen growth curves, turbidity OD420-580); assay type: cell-based; settings: 138 mM crotyl alcohol, FIG. 5B
Procedure: (§1) E. coli Str. K-12 substr. MG1655 strains 48 (wildtype) and 3-FEDB with multiple deletions (ΔyahkΔadhPΔyqhDΔadhE); and E. coli ATCC 8739 C strains (wildtype) and its variants 3-FISC (ΔadhE), 3-GAEB (ΔadhEΔyqhD), 3-GBOG (ΔadhEΔyqhDΔadhP), and 3-GDOB (ΔadhEΔyqhDΔadhPΔyahK) were struck for single colonies on LB agar from a glycerol freezer stock. Four single colonies per strain were picked and inoculated into 1 mL LB+55.7 mM glucose in deep well 96 well plates and grown at 37° C. overnight (16-20 hours). The optical density of the overnight culture was taken and cells were normalized to OD600=1 and spun down. Cells were resuspended in 1 mL of M9 minimal media+11.1 mM glucose. Cells were then spun down and washed again in 1 mL M9+11.1 mM glucose. Bioscreen honeycomb 2 plates (Cat. No. 9502550) were filled with 198 μL M9+11.1 mM glucose or M9+11.1 mM glucose+138 mM crotyl alcohol (Sigma-Aldrich). 2 μL washed cells were added to each well at N=4. Bioscreen honeycomb 2 plates were loaded into a bioscreen C MBR (Oy Growth Curves Ab Ltd) machine, an incubator system set to read turbidity at OD420-580 every 15 minutes at 37° C. For growth curve data, see FIG. 4A (E. coli Str. K-12 substr. MG1655 strains) and FIG. 4B (E. coli ATCC 8739 C variant strains).

[2] = tested on: E. coli Str. K-12 substr. MG1655 strains; assay: as above; assay type: cell-based; settings: 138 mM crotyl alcohol, M9+11.1 mM glucose, 37° C., FIG. 4B
Procedure: as §1

CC=CCO [crotyl alcohol, but-2-en-1-ol]
growth in the presence of crotyl alcohol ([1]; M9+11.1 mM glucose, 37° C., wild-type or parental strain): growth is inhibited | growth in the presence of crotyl alcohol ([1]; strain 3-FIDC (ΔadhE)): inhibited | growth in the presence of crotyl alcohol ([1]; strain 3-GAEB (ΔadhEΔyqhD)): inhibited | growth in the presence of crotyl alcohol ([1]; strain 3-GBOB (ΔadhEΔyqhDΔadhP)): while showing an initial lag grew on crotyl alcohol | growth in the presence of crotyl alcohol ([1]; strain 3-GBOG (ΔyahKΔadhPΔyqhDΔadhE)): while showing an initial lag grew on crotyl alcohol | growth in the presence of crotyl alcohol ([2]; strain 3-FEDB (ΔyahKΔadhPΔyqhDΔadhE)): while showing an initial lag grew on crotyl alcohol | growth in the presence of crotyl alcohol ([2]; wild-type or parental strain (48)): growth is inhibited
